Where “and” joins values, the source holds several entries; their conditions need not be identical. Identical values can stand only once. Like-named read-outs stand apart in the source and are kept apart here.
What was measured:
[1] = tested on: T. b. rhodesiense (STIB900, trypomastigotes); assay: in vitro activity on T. b. rhodesiense, serial dilution assay; type: cell-based, Trypanosoma brucei rhodesiense; conditions: for Selectivity index (SI) T. b. rhodesiense: SI = IC50 cytotoxicity (L6)/IC50 in T. b. rhodesiense; for IC50: Trypanosoma brucei
Description: (§1) The in vitro activity was assessed on T. b. rhodesiense (STIB900, trypomastigotes), T. cruzi (Tulahuen C2C4, intracellular amastigotes), L. donovani (MHOM-ET-67/L82, axenically grown amastigotes), P. falciparum (NF54, intraerythrocytic), and L6 cells (ATCC, CRL-1458™, rat skeletal myoblasts) as previously described ([Bernal et al., 2020]). The activities were determined in serial dilution assays with 72 h compound exposure, respectively 96 h for intracellular T. cruzi. Results are expressed in µg/mL for extracts and in µM for pure compounds. The IC50 values were determined for the compounds only when they were <50 µM.

[2] = tested on: T. cruzi (Tulahuen C2C4, intracellular amastigotes); assay: in vitro activity on T. cruzi, serial dilution assay; type: cell-based, Trypanosoma cruzi; conditions: for IC50: Trypanosoma cruzi, TULAHUEN; for Selectivity index (SI) T. cruzi: SI = IC50 cytotoxicity (L6)/IC50 in T. cruzi
Description: as §1

[3] = tested on: L. donovani (MHOM-ET-67/L82, axenically grown amastigotes); assay: in vitro activity on L. donovani, serial dilution assay; type: cell-based, Leishmania donovani; conditions: for IC50: Leishmania donovani; for Selectivity index (SI) L. donovani: SI = IC50 cytotoxicity (L6)/IC50 in L. donovani
Description: as §1

[4] = tested on: P. falciparum (NF54, intraerythrocytic); assay: in vitro activity on P. falciparum, serial dilution assay; type: cell-based, Plasmodium falciparum; conditions: for IC50: Plasmodium falciparum, read-out: IC50 P. falciparum; for Selectivity index (SI) P. falciparum: SI = IC50 cytotoxicity (L6)/IC50 in P. falciparum
Description: as §1

[5] = cytotoxicity in L6 cells; type: cell-based, rat
Description: as §1

[6] = 72 h, 72 h exposure, means of two independent assays ± deviation from the mean, read-out: IC50 T. b. rhodesiense
[7] = 96 h, 96 h exposure, means of two independent assays ± deviation from the mean, read-out: IC50 T. cruzi
[8] = 72 h, axenic amastigotes, 72 h exposure, means of two independent assays ± deviation from the mean, read-out: IC50 L. donovani
[9] = NF54, 72 h, 72 h exposure, means of two independent assays ± deviation from the mean
[10] = inactive, read-out: IC50 T. b. rhodesiense (inactive)
[11] = inactive, read-out: IC50 T. cruzi (inactive)
[12] = inactive, read-out: IC50 L. donovani (inactive)
[13] = rat, L6 cells (rat skeletal myoblasts, ATCC CRL-1458), rat skeletal myoblast (L6 cells), 72 h exposure, means of two independent assays ± deviation from the mean, read-out: IC50 Cytotoxicity
[14] = 72 h exposure, means of two independent assays ± deviation from the mean, read-out: IC50 T. b. rhodesiense
[15] = 72 h, read-out: IC50 L. donovani
[16] = rat skeletal myoblast (L6 cells), 72 h exposure, means of two independent assays ± deviation from the mean, read-out: IC50 Cytotoxicity

SMILES	IC50 [1, 6] [µM]	IC50 [2, 7] [µM]	IC50 [3, 8] [µM]	IC50 [4, 9] [µM]	Selectivity index (SI) P. falciparum [4]	Selectivity index (SI) L. donovani [3]	also measured
COc1ccc2cc1/C=C\NC(=O)[C@H](Cc1ccccc1)NC(=O)[C@@H]1[C@H](CCN1C(=O)[C@@H](NC(=O)C(C)N(C)C)C(C)C)O2 (stereo in doubt) [Compound 10, amphibine H]	30.4 ± 4.6	> 50	> 50	15.1 ± 0.5	> 5.3		Selectivity index (SI) T. b. rhodesiense [1]: > 2.5; IC50 at 72 h ([5]; rat, IC50 Cytotoxicity): > 50 µM
O=C(Cn1ccnc1[N+](=O)[O-])NCc1ccccc1 [Benznidazole, reference compound]		2.3 ± 0.2					IC50 ([2]; 96 h, Table 2, 96 h exposure, means of two independent experiments, read-out: IC50 T. cruzi): 0.667 µg/mL
CCN(CC)CCCC(C)Nc1ccnc2cc(Cl)ccc12 (stereo not shown) [Chloroquine, reference compound]							IC50 ([4]; NF54, 72 h): 0.003 µg/mL and 9 nM
CCCCCCCCCCCCCCCC(=O)OCC(O)COP(=O)([O-])OCC[N+](C)(C)C (stereo not shown) [Compound 3, 1-palmitoyl-lysolecithin]	> 20		> 20	> 10			IC50 ([2]; 96 h, read-out: IC50 T. cruzi): 12.1 ± 2.4 µM; IC50 at 72 h ([5]; rat, IC50 Cytotoxicity): > 20 µM
CC(C)[C@H](NC(=O)[C@H](C)N(C)C)C(=O)N1CC[C@@H]2Oc3ccc(cc3)/C=C\NC(=O)[C@H](Cc3ccccc3)NC(=O)[C@H]21 [Compound 5, mauritine A]							IC50 [1, 10]: > 50 µM; IC50 [2, 11]: > 50 µM; IC50 [3, 12]: > 50 µM; IC50 ([4]; NF54, abstract and b45 text): > 50 µM
CN[C@@H](Cc1ccccc1)C(=O)N[C@@H]1C(=O)N[C@@H](CC(C)C)C(=O)N/C=C\c2ccc(cc2)O[C@H]1C(C)C [Compound 7, sanjoinine B]	> 50	> 50	> 50	23.1 ± 9	> 6.0		IC50 at 72 h [5, 13]: > 50 µM
CCC(C)[C@@H]1NC(=O)[C@@H](NC(=O)[C@H](Cc2ccccc2)N(C)C)[C@H](C(C)C)Oc2ccc(cc2)/C=C\NC1=O (stereo partly shown) [Compound 8, lotusanine A]	> 50	> 50	> 50	> 50			IC50 at 72 h [5, 13]: > 50 µM
CC(C)C[C@@H]1NC(=O)[C@@H](NC(=O)[C@H](Cc2c[nH]c3ccccc23)N(C)C)[C@H](C(C)C)Oc2ccc(cc2)/C=C\NC1=O [Compound 9, nummularine K]	12.7 ± 3.8	43.6 ± 7.1	> 50	20.7 ± 5.8	1.6		Selectivity index (SI) T. b. rhodesiense [1]: 2.7; Selectivity index (SI) T. cruzi [2]: 0.8; IC50 at 72 h [5, 13]: 33.6 ± 4.9 µM
C=C(C)C12CCC3(CCC4(C)C(CCC5C6(C)C(C(=O)O)C(O)C(C)(C)C6CCC54C)C31)C(=O)O2 (stereo not shown) [Compound 13]	> 50	> 50	11.6 ± 2.4	29.1 ± 4.1	> 3.7	> 9.3	IC50 at 72 h ([5]; rat, IC50 Cytotoxicity): > 50 µM
C=C(C)[C@@H]1CC[C@]2(C(=O)O)CC[C@]3(C)[C@H](CC[C@@H]4[C@@]5(C)[C@H](C=O)[C@@H](O)C(C)(C)[C@@H]5CC[C@]43C)[C@@H]12 [Compound 14, colubrinic acid]					> 5.5	> 45	IC50 [1, 14]: > 50 µM; IC50 ([2]; 96 h, read-out: IC50 T. cruzi): > 50 µM; IC50 [3, 15]: 1.9 ± 0.4 µM; IC50 ([4]; NF54, 72 h): 15.3 ± 4.1 µM; IC50 at 72 h [5, 16]: > 50 µM
C=C(C)[C@@H]1CC[C@]2(C(=O)O)CC[C@]3(C(=O)O)[C@H](CC[C@@H]4[C@@]5(C)C=CC(C)(C)[C@@H]5CC[C@]43C)[C@@H]12 [Compound 17, ceanothenic acid]					> 8.0	> 40	IC50 [1, 14]: > 50 µM; IC50 ([2]; 96 h, read-out: IC50 T. cruzi): > 50 µM; IC50 [3, 15]: 2.6 ± 0.2 µM; IC50 ([4]; NF54, 72 h): 13.9 ± 4 µM; IC50 at 72 h [5, 16]: > 50 µM
C=C(C)[C@@H]1CC[C@]2(C(=O)O)CC[C@]3(C)[C@H](CC[C@@H]4[C@@]5(C)C[C@@H](O)[C@H](OC(=O)/C=C/c6ccc(O)cc6)C(C)(C)[C@@H]5CC[C@]43C)[C@@H]12 [Compound 18, 3-O-trans-p-coumaroylalphitolic acid]	25.9 ± 2.6	19.5 ± 0.6	3 ± 0.2	0.2 ± 0.04	79.0	5.3	Selectivity index (SI) T. b. rhodesiense [1]: 0.6; Selectivity index (SI) T. cruzi [2]: 0.8; IC50 at 72 h ([5]; rat, IC50 Cytotoxicity): 15.8 ± 6.4 µM
CC(C)=CCC1=C(Cl)C(=O)c2c(O)ccc(O)c2C1=O [Compound 21]	0.5 ± 0.3	21.5 ± 0.2	3 ± 0.4	9.2 ± 2.1	0.9	2.6	Selectivity index (SI) T. b. rhodesiense [1]: 15.8; Selectivity index (SI) T. cruzi [2]: 0.4; IC50 at 72 h [5, 13]: 7.9 ± 1.3 µM
C=C(C)[C@H](O)CC1=C(O)C(=O)c2c(O)ccc(O)c2C1=O [Compound 22]	36 ± 9.4	> 50	7.9 ± 0.9	> 50		3.8	Selectivity index (SI) T. b. rhodesiense [1]: 0.8; IC50 at 72 h [5, 13]: 30.4 ± 10.6 µM
COC1=CC(=O)C=C(OC)C1=O [Compound 23]							IC50 [1, 14]: 9.3 ± 3.1 µM; IC50 ([2]; 96 h, read-out: IC50 T. cruzi): > 50 µM; IC50 [3, 15]: 15.1 ± 1 µM; IC50 ([4]; NF54, 72 h): 36.9 ± 15.4 µM; IC50 at 72 h [5, 16]: > 50 µM
CC(C)=CC[C@@]12O[C@@H]1C(O)c1c(O)ccc(O)c1C2=O (stereo partly shown) [Compound 25]	2.5 ± 0.1	> 50	12.7 ± 5.3	14 ± 1.9	1.4	1.5	Selectivity index (SI) T. b. rhodesiense [1]: 7.6; IC50 at 72 h [5, 13]: 19 ± 2.3 µM
CC(C)=CCCc1ccc2c(c1)C(=O)c1ccccc1C2=O [Compound 27]							IC50 [1, 10]: > 50 µM; IC50 [2, 11]: > 50 µM; IC50 [3, 12]: > 50 µM; IC50 ([4]; NF54, abstract and b45 text): > 50 µM
CC(C)=CCCc1ccc2c(c1O)C(=O)c1ccccc1C2=O [Compound 28]							IC50 [1, 10]: > 50 µM; IC50 [2, 11]: > 50 µM; IC50 [3, 12]: > 50 µM; IC50 ([4]; NF54, abstract and b45 text): > 50 µM
Nc1nc(N)nc(Nc2ccc([As]3SCC(CO)S3)cc2)n1 (stereo not shown) [Melarsoprol, reference compound]							IC50 ([1]; 72 h, read-out: IC50 T. b. rhodesiense): 0.005 µg/mL and 16 nM
CCCCCCCCCCCCCCCCOP(=O)([O-])OCC[N+](C)(C)C [Miltefosine, reference compound]			0.52 ± 0.07				IC50 ([3]; 72 h, Table 2, 72 h exposure, means of two (C. sieberiana three) independent experiments, read-out: IC50 L. donovani): 0.282 µg/mL
COc1cc([C@@H]2c3cc4c(cc3[C@H](O)[C@H]3COC(=O)[C@H]23)OCO4)cc(OC)c1OC [Podophyllotoxin, reference compound]							IC50 at 72 h ([5]; Table 2, rat skeletal myoblast (L6 cells), 72 h exposure, read-out: IC50 Cytotoxicity): 0.008 µg/mL

Reference: publication PMC10326435, “Antiprotozoal activity of natural products from Nigerien plants used in folk medicine” (Frontiers in Pharmacology, 2023)
